Data reported in US8968703B2, “13C-MR detection using hyperpolarised 13C-fructose” (GE Healthcare Limited, priority 2009, dated 2015).

Key:
[1] = 3T T1 studies of hyperpolarized [2-13C]-fructose in solution; type: physicochemical; conditions: for T1 sec (3T): C2 fructose carbon, solution spectra, monoexponential fit
Experimental: T1 studies were performed using a 3T GE Signa™ scanner (GE Healthcare. Waukesha, Wis.) equipped with the MNS (multinuclear spectroscopy) hardware package. Solution spectra were acquired using a 5° non localised pulse, TR=3 s and fit to a monoexponential. The RF coil used in these experiments was a dual-tuned ^1H-^13C coil with a quadrature ^13C channel and linear ^1H channel construction based on an earlier design and also used in ^13C-pyruvate mouse imaging studies. For animal studies, T2-weighted fast spin echo images were acquired prior to MRSI studies to denote anatomy and place voxels on the region of interest. In vivo MRSI studies were carried out using a compressed sensing double spin 3D MRSI acquisition scheme as previously published by Hu S et al. (2008) Compressed sensing for resolution enhancement of hyperpolarized 13C flyback 3D-MRSI. J Magn Reson 192, 258-264, with a TE=140 ms. TR=215 ms, FOV=8 cm×8 cm, and 16×8 resolution. 500 μl of 80 mM [2-^13C]-fructose was injected similar to described by Albers M J et al. (2008) Hyperpolarized 13C lactate, pyruvate and alanine: noninvasice biomarkers for prostate cancer detection and grading. Cancer Res. 68, 8607-8615, for [1-^13C] pyruvate in a transgenic model of prostate cancer (TRAMP). These injections were compared to the standard [1-^13C]-pyruvate injection for the same voxel in a tumor region of interest.

[2] = 11.7T NMR studies of hyperpolarized [2-13C]-fructose (T1, percent polarization); type: physicochemical; conditions: for T1 sec (11.7T): C2 fructose carbon, mono-exponential fit of hyperpolarized signal decay; for % pol (corrected): percent polarization corrected for transfer time using T1 decay
Experimental: A 4.0M solution of 2-[^13C]-fructose (Isotec, Miamisburg, Ohio) in water containing 15 mM OX063 trityl radical (Oxford Instruments) was hyperpolarized on a Hypersense instrument (Oxford Instruments) as described by Ardenkjaer-Larsen et al (2003) Increase in signal-to-noise ratio of >10,000 times in liquid-state NMR. Proc. Natl. Acad. Sci. U.S.A. 100, 10158-10163. The frozen sample was dissolved in 1× phosphate buffered saline (PBS), with a resultant pH of 7.6, and transferred immediately to a 10 mm NMR tube.
NMR studies were performed on an 11.7T Varian INOVA spectrometer (125 MHz ^13C, Varian Instruments) using a 10 mm ^15N/[…]/^13C triple-tuned direct detect probe. Initially, a thermal spectrum was acquired for a natural abundance fructose sample in 1×PBS buffer at 37° C. (nt=9000, sw=30000, np=30000, TR=3.5 s, acq time=0.5 s) using an Ernst angle pulse (45 degrees). […] The C2 carbon resonances correspond to the isomeric distribution of the two ring forms (pyranose and furanose forms) of the fructose molecule.
For the acquisition of hyperpolarized ^13C spectra […] pulse hyperpolarized ^13C NMR spectra (1 average, spectral window=30000 Hz, number of points=30000, TR=3.5 s, acq time=0.5 s, total acq time=2 min 55 s) were acquired using a 5° pulse and proton decoupled using a waltz-16 decoupling scheme. Hyperpolarized studies were followed by acquisition of thermal data using nearly identical parameters, using a 90° tip angle and a repeat time of roughly four T1's (TR=76 s, nt=64). T1's were determined by performing a mono-exponential fit to the signal decay curve of the hyperpolarized compounds. Signal enhancement percent polarizations were calculated by comparing the hyperpolarized and thermal data sets and accounting for differences in tip angle and transients obtained. Solid state polarizations were calculated by correcting the enhancement for the transfer time from the polarizer using the T1 decay.

hexokinase = test: NMR study of enzymatic conversion of hyperpolarized fructose to fructose-6-phosphate; type: biochemical; conditions: 400 U hexokinase
Experimental: For NMR studies of the enzymatic conversion of Fructose to fructose-6-phosphate, hyperpolarized [2-^13C]-fructose was reacted with 400 U of hexokinase (Sigma Aldrich) in the presence of 15 mM ATP, 50 mM TRIS and 13 mM MgCl2. The labelling and mechanism for transport and metabolism is shown below (FIG. 1), though in this enzymatic study the transport element has been removed and the enzyme activity was independently measured. Peaks corresponding to fructose-6-phosphate were identified using a natural abundance carbon spectrum, using a similar set of experimental parameters.

[3] = 11.7T NMR studies of hyperpolarized [2-13C]-fructose (T1, percent polarization); type: physicochemical; conditions: pH ranges 5.9-7.8

SMILES: OC[C@H]1O[C@@](O)(CO)[C@@H](O)[C@@H]1O [A-fructofuranose]
- T1 sec (3T) [1]: 13.4 ± 0.4 s
- T1 sec (11.7T) [2]: 15.5 ± 0.5 s
- % pol (corrected) [2]: 11.8 ± 2.0%

SMILES: O=[13C](CO)[C@@H](O)[C@H](O)[C@H](O)CO [fructose, [2-^13C]-fructose]
- Relaxation times (T1) ([1]; at 3T): 13 to 14 s
- Time to conversion to fructose-6-phosphate after addition to hexokinase (hexokinase; 15 mM ATP, 50 mM TRIS, 13 mM MgCl2): ≤ 5 s
- Conversion of fructose to fructose-6-phosphate in thermal spectrum (hexokinase; thermal spectrum acquired over 85 minutes post DNP): fully converted
- Relaxation times (T1) ([2]; at 11.7 T): 15 to 16 s
- Percent polarization, average over isomers ([2]; averages for the isomers of fructose): ~12%
- Isomeric ratio of fructose pyranose to furanose in solution ([2]; in solution): approximately 77/23
- T1 dependence on pH [3]: no T1 dependence on pH

SMILES: OC[C@H]1O[C@](O)(CO)[C@@H](O)[C@@H]1O [β-fructofuranose]
- T1 sec (3T) [1]: 13.4 ± 2.5 s
- T1 sec (11.7T) [2]: 15.8 ± 0.5 s
- % pol (corrected) [2]: 11.6 ± 2.5%

SMILES: OC[C@@]1(O)OC[C@@H](O)[C@@H](O)[C@@H]1O [β-fructopyranose]
- T1 sec (3T) [1]: 14.5 ± 0.3 s
- T1 sec (11.7T) [2]: 16.3 ± 0.5 s
- % pol (corrected) [2]: 12.0 ± 2.2%
